Here are results for six compounds from patent US9512315B2, “Quenching dye for labeling biomolecules and method for preparing the same” (DKC CORPORATION, priority 2013, dated 2016).

Several values for one entry are separate records, joined by “and”; a condition that tells them apart may be missing. Identical values can stand only once.

Holding throughout (assay type): physicochemical
Data set [1] is described as follows: Test Example 1: comparison of absorption spectra. To be noted: for negative absorption: FIG. 1, range of 750-800 nm. Here is the method: (§1) LC/MS was measured by ESI (electrospray ionization) using the LC/MSD SL of Agilent Technologies. The absorption spectrum and maximum absorption wavelength (λabs) of the synthesized dye were measured with Lambda 45 of PerkinElmer. The emission spectrum and maximum emission wavelength (λfl) were measured with LS-55 of PerkinElmer.
(§2) In order to investigate the absorption intensity and spectrum of the anthraquinone compound according to the present disclosure, the absorption spectra of the compounds of Example 1 and Example 6 and commercially available BHQ-3 as a comparative example were compared. Stock solutions were prepared by dissolving the compounds of Example 1 and Example 6 according to the present disclosure in distilled water. BHQ-3 was dissolved in a small amount of DMSO according to the manufacturer's instructions and diluted with distilled water.

A short description of data set [2]: Solubility in water (stock solution preparation). The protocol: as §2
The nature of data set [3]: Maximum absorption wavelength (λabs) of the synthesized dye in PBS. The protocol:
as §1

Turning to `CCN(CC)c1ccc2nc3ccc(/N=N/c4ccc(N(C)CCCC(=O)O)cc4)cc3[n+](-c3ccccc3)c2c1` [BHQ-3, reference compound], the negative absorption entry in data set [1] is recorded as “negative (−) absorption”. Moreover, the “range of absorption spectra, normalized to the maximum absorption intensity” value in data set [1] (FIG. 2) is 300-750 nm. Further, in data set [2], the solubility in water entry is “not dissolved in water”.

Consider `CN(CCCCCC(=O)O)c1ccc(/N=N/c2ccc(Nc3cc(S(=O)(=O)O)c(N)c4c3C(=O)c3ccccc3C4=O)c(S(=O)(=O)O)c2)cc1` [Example 1], for which the “λabs (maximum absorption wavelength)” value in data set [3] was 481 nm and 626 nm. The negative absorption result in data set [1] is on record as “did not show negative absorption”.

Regarding `C=CS(=O)(=O)CCNC(=O)CCCCCN(C)c1ccc(/N=N/c2ccc(Nc3cc(S(=O)(=O)O)c(N)c4c3C(=O)c3ccccc3C4=O)c(S(=O)(=O)O)c2)cc1` [Example 3], the “λabs (maximum absorption wavelength)” value in data set [3] is 481 nm and 626 nm.

For the compound `CN(CCCCCCCC(=O)O)c1ccc(/N=N/c2ccc(Nc3cc(S(=O)(=O)O)c(N)c4c3C(=O)c3ccccc3C4=O)c(S(=O)(=O)O)c2)cc1` [Example 5], in data set [3], the “λabs (maximum absorption wavelength)” value is 472 nm and 624 nm.

Turning to `CN(CCCCCCCC(=O)ON1C(=O)CCC1=O)c1ccc(/N=N/c2ccc(Nc3cc(S(=O)(=O)O)c(N)c4c3C(=O)c3ccccc3C4=O)c(S(=O)(=O)O)c2)cc1` [Example 6], the negative absorption result in data set [1] is recorded as “did not show negative absorption”.

Turning to `C=CS(=O)(=O)CCNC(=O)CCCCCCCN(C)c1ccc(/N=N/c2ccc(Nc3cc(S(=O)(=O)O)c(N)c4c3C(=O)c3ccccc3C4=O)c(S(=O)(=O)O)c2)cc1` [Example 7], the “λabs (maximum absorption wavelength)” value in data set [3] was 472 nm and 624 nm.
